{"source": "paper PMC3532939", "about": "(Biochemistry, 2012)", "key": {"[1]": {"biological_target": "T1, E. coli PabB (Escherichia coli, UniProt P05041)", "T1 sequence (P05041 1-453)": "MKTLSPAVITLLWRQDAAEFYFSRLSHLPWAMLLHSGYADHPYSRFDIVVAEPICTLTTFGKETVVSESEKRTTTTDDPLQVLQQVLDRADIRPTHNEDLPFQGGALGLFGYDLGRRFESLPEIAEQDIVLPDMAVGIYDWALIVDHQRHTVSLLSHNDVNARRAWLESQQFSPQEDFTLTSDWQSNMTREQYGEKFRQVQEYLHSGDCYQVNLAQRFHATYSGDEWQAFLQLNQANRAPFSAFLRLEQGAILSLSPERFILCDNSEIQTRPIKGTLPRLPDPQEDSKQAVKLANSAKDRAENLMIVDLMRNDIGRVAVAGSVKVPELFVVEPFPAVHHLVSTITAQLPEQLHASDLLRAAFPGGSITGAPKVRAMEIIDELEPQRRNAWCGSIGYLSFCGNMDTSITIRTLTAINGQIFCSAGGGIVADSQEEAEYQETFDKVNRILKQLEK", "test": "LC/MS of bound ligand released from purified protein", "assay_type": "binding", "conditions": "co-purified tryptophan; vestigial regulatory site"}, "[2]": {"biological_target": "T2, SmPabB (Stenotrophomonas maltophilia, UniProt B2FR92)", "T2 sequence (B2FR92 1-454)": "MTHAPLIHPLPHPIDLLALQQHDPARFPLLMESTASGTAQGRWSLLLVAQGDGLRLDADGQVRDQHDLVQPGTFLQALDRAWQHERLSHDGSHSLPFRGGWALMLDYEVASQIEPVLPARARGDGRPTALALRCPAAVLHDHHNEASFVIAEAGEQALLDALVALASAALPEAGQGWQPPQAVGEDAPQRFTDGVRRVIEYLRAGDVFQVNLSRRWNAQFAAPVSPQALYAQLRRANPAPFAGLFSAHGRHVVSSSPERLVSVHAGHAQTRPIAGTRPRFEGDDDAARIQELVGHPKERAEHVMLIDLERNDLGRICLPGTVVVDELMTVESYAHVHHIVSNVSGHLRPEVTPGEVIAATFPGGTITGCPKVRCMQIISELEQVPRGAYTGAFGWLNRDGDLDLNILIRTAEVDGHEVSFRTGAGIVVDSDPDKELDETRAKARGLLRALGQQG", "test": "isothermal titration calorimetry", "assay_type": "binding"}, "[3]": {"biological_target": "T3, Stenotrophomonas maltophilia PabB (aminodeoxychorismate synthase) (Stenotrophomonas maltophilia, UniProt B2FR92 2-454)", "T3 sequence": "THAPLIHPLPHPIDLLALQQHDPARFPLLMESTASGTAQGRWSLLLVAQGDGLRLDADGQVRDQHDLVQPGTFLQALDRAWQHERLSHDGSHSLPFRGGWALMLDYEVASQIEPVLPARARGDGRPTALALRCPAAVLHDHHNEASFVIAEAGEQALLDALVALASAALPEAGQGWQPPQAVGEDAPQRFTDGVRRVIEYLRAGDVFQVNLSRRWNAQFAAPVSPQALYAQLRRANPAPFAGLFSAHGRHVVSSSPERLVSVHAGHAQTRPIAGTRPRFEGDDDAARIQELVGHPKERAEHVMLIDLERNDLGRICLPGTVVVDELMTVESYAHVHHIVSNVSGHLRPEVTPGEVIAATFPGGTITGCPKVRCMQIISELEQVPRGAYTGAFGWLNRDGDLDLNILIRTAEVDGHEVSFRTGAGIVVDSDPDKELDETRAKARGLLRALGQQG", "test": "other fluorescence titration"}, "[4]": {"biological_target": "T4, E. coli PabB (aminodeoxychorismate synthase) (E. coli, UniProt P05041 1-453)", "T4 sequence": "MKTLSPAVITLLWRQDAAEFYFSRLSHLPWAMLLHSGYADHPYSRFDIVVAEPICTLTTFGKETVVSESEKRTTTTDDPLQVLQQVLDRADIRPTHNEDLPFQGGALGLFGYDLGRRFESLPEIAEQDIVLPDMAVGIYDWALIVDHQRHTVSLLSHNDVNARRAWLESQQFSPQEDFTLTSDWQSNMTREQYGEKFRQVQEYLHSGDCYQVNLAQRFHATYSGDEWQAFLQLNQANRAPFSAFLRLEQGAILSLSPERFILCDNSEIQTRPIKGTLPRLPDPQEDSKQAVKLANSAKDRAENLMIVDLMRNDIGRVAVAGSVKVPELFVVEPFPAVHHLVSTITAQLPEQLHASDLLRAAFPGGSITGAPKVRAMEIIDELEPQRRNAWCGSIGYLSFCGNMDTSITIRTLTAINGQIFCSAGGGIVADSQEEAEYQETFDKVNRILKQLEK", "test": "other fluorescence titration"}}, "data": [{"molecule": "N[C@@H](Cc1c[nH]c2ccccc12)C(=O)O", "note": "[tryptophan]", "values": [{"measurement": "LC/MS of bound ligand released from purified protein", "setting": "[1]", "value": "E. coli PabB samples, as expected, contained tryptophan"}, {"measurement": "Kd", "setting": "[2]", "value": "~11700", "unit": "nM"}]}, {"molecule": "E. coli PabA (glutamine amidotransferase subunit of aminodeoxychorismate synthase) (enzyme, UniProt P00903 1-187, looked up) MILLIDNYDSFTWNLYQYFCELGADVLVKRNDALTLADIDALKPQKIVISPGPCTPDEAGISLDVIRHYAGRLPILGVCLGHQAMAQAFGGKVVRAAKVMHGKTSPITHNGEGVFRGLANPLTVTRYHSLVVEPDSLPACFDVTAWSETREIMGIRHRQWDLEGVQFHPESILSEQGHQLLANFLHR", "values": [{"measurement": "Kd", "setting": "[3]", "value": 39, "unit": "nM"}, {"measurement": "Kd", "setting": "[4]", "value": 109, "unit": "nM"}]}]}
